Laboratory results: US5210077A, “Antibodies to cytokinins having a glycosylated isoprenoid side chain and immunoassay methods” (The United States of America as represented by the …, priority 1989, dated 1993)
Entries after “also recorded” stand apart in the source; their conditions may differ. Where two headings read alike, the source gives them in different places.

How the values were obtained:
[1] = test system: mouse polyclonal antibodies; assay: Inhibition ELISA for the mouse polyclonal antibodies; assay type: binding; details: for binding by the mouse polyclonal antibody (in words): inhibition ELISA; for Antibody Bound (%): inhibition ELISA with hapten, None = 100
Procedure: Mouse antibodies were elicited in BALB/c mice by two intraperitoneal inoculations at 3-week intervals with the bovine serum albumin conjugate of E-9-(2-carboxyethyl)zeatin-O-β-D-glucopyranoside emulsified in complete Freund's adjuvant. The dosage was 50-80 μg of conjugate in 0.1-0.2 mL. The mice were bled 1 week after the second injection, and sera were obtained, and tested for antibody.
(§1) Antibodies were screened and further analyzed by solid-phase enzyme immunoassays as follows. Polyvinylchloride assay plates (Costar, Cambridge, MA), were coated with appropriate serum albumin conjugate (made with the O-glucoside derivative or the oxidized zeatin riboside, 10 μg/mL in PBS, 50 μL/well) for 4 h at room temperature or overnight at 4°. Plates were then washed with PBS containing 0.05% "Tween"-20 (PBS-Tween). Remaining sites were blocked by incubation for 1 h with 100 μL/well of 1% BSA in PBS-"Tween" solution (BSA-PBS-"Tween"). Plates were then rewashed and stored for up to 3 weeks at 4° in PBS containing sodium azide.
(§2) Direct binding (titration) and inhibition assays were performed with antibodies dissolved in BSA-PBS-"Tween", a diluent selected to minimize nonspecific interactions with the solid phase, and to suppress binding to the solid phase by antibodies specific for serum albumin.
(§3) Inhibition assay format was used to assess antibody specificity. Antibody at an appropriate dilution determined by titration to give between 50 and 100% of maximal binding was mixed with hapten solution and preincubated for 1 h at room temperature prior to application to the coated wells. In both formats, samples (50 μL/well) were generally applied to plates in triplicate and were incubated 1 h, with shaking. Plates were emptied, washed, rinsed with distilled water, and drained. HRP-labeled rabbit anti-mouse IgG (Zymed Laboratories, South San Francisco, CA) was added at an appropriate dilution (50 μL/well) and incubated for 1 h with shaking. The plates were then washed as before, and bound HRP detected by addition of 50 μL/well of substrate (1 mM ABTS and 6.7 mM H2 O2 in 60 mM sodium citrate buffer, pH 4.2). The absorbance was determined at 415 nm with a microplate reader (Model 308, Bio-Tek, Winooski, VT), generally after 15 min. In some cases, reactions were terminated by addition of 50 μL/well of 10% sodium dodecylsulfate.

[2] = test system: monoclonal antibody ATCC HB 9658; assay: Competition ELISA with HRP conjugate of 9-(2-carboxyethyl)zeatin-O-β-D-glucopyranoside and monoclonal antibody ATCC HB 9658; assay type: binding, mouse; details: for IC50: read-out: I50
Procedure: Competition ELISA using cytokinin conjugates of HRP was performed using polystyrene assay plates coated with mouse monoclonal antibodies specific for cytokinins. […] Immediately before use, assay plates were coated with 1 μg/mL of monoclonal IgG in BSA-PBS-Tween. Samples were mixed with an appropriate concentration of cytokinin-HRP conjugate and applied to assay wells in replicate (100 μL/well). After 1 h, wells were drained, washed, and rinsed. Bound conjugate was detected with ABTS substrate solution and quantified by determining absorbance at 415 nm. Calculations were performed as follows. Assay data was fit to a logistic model. Asymptotic values were determined by inspection of the assay curves, and other coefficients were determined by linear regression. […] Relative affinities are expressed using E-zeatin riboside or E-zeatin-O-β-D-glucopyranoside as standards.

[3] = test system: monoclonal antibody ATCC HB 9658; assay: Inhibition ELISA, specificity of monoclonal antibody ATCC HB 9658; assay type: binding, mouse; details: for Relative I50 (relative to E-zeatin-O-β-D-glucopyranoside) / IC50: antibody ATCC HB 9658; for IC50: read-out: I50
Procedure: as §1, §2
as §3, with “Antibody at an appropriate dilution determined by titration to give between 50 and 100% of maximal binding was mixed with hapten solution and preincubated for 1 h at room temperature prior to application to the coated wells.” left out
Calculations were performed as follows. Assay data was fit to a logistic model. Asymptotic values were determined by inspection of the assay curves, and other coefficients were determined by linear regression. […] Relative affinities are expressed using E-zeatin riboside or E-zeatin-O-β-D-glucopyranoside as standards.

Row | IC50 [2] [µM] | IC50 ([3]; inhibition ELISA) [µM] | binding by antibody of clone 240 / ATCC HB 9658 (in words) ([3]; listed as E-zeatin-O-β-D-glucopyranoside) | binding by antibody of clone 240 / ATCC HB 9658 (in words) ([3]; listed as zeatin-O-β-D-glucopyranoside) | binding by antibody of clone 240 / ATCC HB 9658 (in words) [3] | binding reduced relative to zeatin-O-β-D-glucopyranoside ([3]; inhibition ELISA, FIG. 4) | Compound | binding by the mouse polyclonal antibody (in words) [1] | Antibody Bound (%) [1] [%] | Relative I50 (relative to E-zeatin-O-β-D-glucopyranoside) [2] | Relative I50 (relative to E-zeatin-O-β-D-glucopyranoside) ([3]; inhibition ELISA)
1 | 0.021 | 0.087 | bind | binds | – | – | CC(=CCNc1ncnc2[nH]cnc12)COC1OC(CO)C(O)C(O)C1O [E-Zeatin-O-β-D-glucopyranoside, E-zeatin-O-β-D-glucopyranoside] | – | – | 1 | 1
2 | > 1000 | > 100 | – | – | do not bind | – | C/C(=C\CNc1ncnc2c1ncn2[C@@H]1O[C@H](CO)[C@@H](O)[C@H](O)[C@H]1O)CO [E-Zeatin-9-β-D-glucopyranoside] | – | – | > 48000 | > 1100
3 | > 1000 | – | – | – | – | – | CO[C@@H]1O[C@H](CO)[C@@H](O)[C@H](O)[C@H]1O [β-Methylglucoside, β-methyl-D-glucopyranoside] | – | – | > 48000 | –
4 | 0.49 | 1.2 | – | – | – | – | C/C(=C\CN1C(=O)c2ccccc2C1=O)CO[C@@H]1O[C@H](CO)[C@@H](O)[C@H](O)[C@H]1O [PBG, E-2-methyl-4-phthalimidobut-2-enyl-β-D-glucopyranoside] | – | – | 23 | 14

The remaining lines, values behind:

Row | Compound | IC50 [2] [µM] | IC50 ([3]; inhibition ELISA) [µM] | binding by antibody of clone 240 / ATCC HB 9658 (in words) ([3]; listed as E-zeatin-O-β-D-glucopyranoside) | binding by antibody of clone 240 / ATCC HB 9658 (in words) ([3]; listed as zeatin-O-β-D-glucopyranoside) | binding by antibody of clone 240 / ATCC HB 9658 (in words) [3] | binding reduced relative to zeatin-O-β-D-glucopyranoside ([3]; inhibition ELISA, FIG. 4) | binding by the mouse polyclonal antibody (in words) [1] | Antibody Bound (%) [1] [%] | Relative I50 (relative to E-zeatin-O-β-D-glucopyranoside) [2] | Relative I50 (relative to E-zeatin-O-β-D-glucopyranoside) ([3]; inhibition ELISA)
5 | C/C(=C\CNc1ncnc2c1ncn2CCC(=O)O)CO[C@@H]1O[C@H](CO)[C@@H](O)[C@H](O)[C@H]1O [Carboxyethylzeatin-O-β-D-glucopyranoside, E-9-(2-carboxyethyl)zeatin-O-β-D-glucopyranoside] | – | – | – | – | – | – | binds | 76 ± 1 | – | –
6 | C/C(=C\CNc1ncnc2c1ncn2[C@@H]1O[C@H](CO)[C@@H](O)[C@H]1O)CO[C@@H]1O[C@H](CO)[C@@H](O)[C@H](O)[C@H]1O [O-β-D-Glucopyranosyl-E-zeatin-9-riboside] | 0.035 | 0.3 | – | – | – | – | – | – | 1.7 | 3.4
7 | C/C(=C\CNc1ncnc2[nH]cnc12)CO [E-Zeatin, E-zeatin] | > 100 | > 100 | – | – | does not bind significantly; also recorded: do not bind | at least 10,000 fold | do not bind | 99 ± 3 | > 4800 | > 1100
8 | CC(CO)CCNc1ncnc2nc[nH]c12 (racemic) [Dihydrozeatin, (RS)-dihydrozeatin] | > 100 | > 1000 | – | – | – | – | – | – | > 4800 | > 11000
9 | CC(C)=CCNc1ncnc2nc[nH]c12 [Isopentenyladenine, N^6-2-isopentenyladenine] | > 100 | > 1000 | – | – | – | – | – | – | > 4800 | > 11000
10 | C/C(=C\CNc1ncnc2c1ncn2[C@@H]1O[C@H](CO)[C@@H](O)[C@H]1O)CO [9-ribosylzeatin] | – | – | – | – | do not bind | – | – | – | – | –
